According to PubChem BioAssay (NCI):
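Each compound was tested at five concentrations against cells in 96-well plates for 48 hours. TGI is the concentration that stops growth completely.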

How the values were obtained:
Test in all cases: NCI tumour cell line growth inhibition, 48 h
A498 renal = test system: A498 renal
A549 NSCLC = test system: A549 NSCLC
CAKI-1 renal = test system: CAKI-1 renal
CCRF-CEM leukemia = test system: CCRF-CEM leukemia
COLO 205 colon = test system: COLO 205 colon
DLD-1 colon = test system: DLD-1 colon
DMS 114 small cell lung = test system: DMS 114 small cell lung
DMS 273 small cell lung = test system: DMS 273 small cell lung
EKVX NSCLC = test system: EKVX NSCLC
HCC-2998 colon = test system: HCC-2998 colon
HCT-116 colon = test system: HCT-116 colon
HCT-15 colon = test system: HCT-15 colon
HL-60(TB) leukemia = test system: HL-60(TB) leukemia
HOP-18 NSCLC = test system: HOP-18 NSCLC
HOP-62 NSCLC = test system: HOP-62 NSCLC
HOP-92 NSCLC = test system: HOP-92 NSCLC
HT29 colon = test system: HT29 colon
IGROV1 ovarian = test system: IGROV1 ovarian
K-562 leukemia = test system: K-562 leukemia
KM12 colon = test system: KM12 colon
KM20L2 colon = test system: KM20L2 colon
LOX IMVI melanoma = test system: LOX IMVI melanoma
M19-MEL melanoma = test system: M19-MEL melanoma
MALME-3M melanoma = test system: MALME-3M melanoma
MCF7 breast = test system: MCF7 breast
MOLT-4 leukemia = test system: MOLT-4 leukemia
NCI-H226 lung = test system: NCI-H226 lung
NCI-H23 lung = test system: NCI-H23 lung
NCI-H460 lung = test system: NCI-H460 lung
NCI-H522 lung = test system: NCI-H522 lung
NCI/ADR-RES ovarian = test system: NCI/ADR-RES ovarian
OVCAR-3 ovarian = test system: OVCAR-3 ovarian
OVCAR-4 ovarian = test system: OVCAR-4 ovarian
OVCAR-5 ovarian = test system: OVCAR-5 ovarian
OVCAR-8 ovarian = test system: OVCAR-8 ovarian
P388 leukemia = test system: P388 leukemia
P388/ADR leukemia = test system: P388/ADR leukemia
RPMI-8226 leukemia = test system: RPMI-8226 leukemia
RXF 393 renal = test system: RXF 393 renal
SF-268 CNS = test system: SF-268 CNS
SF-295 CNS = test system: SF-295 CNS
SF-539 CNS = test system: SF-539 CNS
SK-MEL-2 melanoma = test system: SK-MEL-2 melanoma
SK-MEL-28 melanoma = test system: SK-MEL-28 melanoma
SK-MEL-5 melanoma = test system: SK-MEL-5 melanoma
SK-OV-3 ovarian = test system: SK-OV-3 ovarian
SN12C renal = test system: SN12C renal
SN12K1 renal = test system: SN12K1 renal
SNB-19 CNS = test system: SNB-19 CNS
SNB-75 CNS = test system: SNB-75 CNS
SNB-78 CNS = test system: SNB-78 CNS
SW-620 colon = test system: SW-620 colon
U251 CNS = test system: U251 CNS
UACC-257 melanoma = test system: UACC-257 melanoma
UACC-62 melanoma = test system: UACC-62 melanoma
UO-31 renal = test system: UO-31 renal
XF 498 CNS = test system: XF 498 CNS
786-0 renal = test system: 786-0 renal
ACHN renal = test system: ACHN renal
LXFL 529 NSCLC = test system: LXFL 529 NSCLC
RXF-631 renal = test system: RXF-631 renal
TK-10 renal = test system: TK-10 renal

O=C1CCCN1CCCN=c1cc2n(-c3ccc(Cl)cc3)c3ccccc3nc-2cc1Nc1ccc(Cl)cc1
TGI (A498 renal): 43.2 µM | TGI (A549 NSCLC): 35.3 µM | TGI (CAKI-1 renal): > 100 µM | TGI (CCRF-CEM leukemia): 50.3 µM | TGI (COLO 205 colon): 2.83 µM | TGI (DLD-1 colon): 28.3 µM | TGI (DMS 114 small cell lung): 20.2 µM | TGI (DMS 273 small cell lung): 43.6 µM | TGI (EKVX NSCLC): 28.1 µM | TGI (HCC-2998 colon): 18.1 µM | TGI (HCT-116 colon): 25.3 µM | TGI (HCT-15 colon): 20 µM | TGI (HL-60(TB) leukemia): 15.8 µM | TGI (HOP-18 NSCLC): > 92.4 µM | TGI (HOP-62 NSCLC): 29.5 µM | TGI (HOP-92 NSCLC): 40.6 µM | TGI (HT29 colon): 13 µM | TGI (IGROV1 ovarian): 24.9 µM | TGI (K-562 leukemia): 30 µM | TGI (KM12 colon): 28.7 µM | TGI (KM20L2 colon): 11 µM | TGI (LOX IMVI melanoma): 28.2 µM | TGI (M19-MEL melanoma): 5.45 µM | TGI (MALME-3M melanoma): 38.3 µM | TGI (MCF7 breast): 25.8 µM | TGI (MOLT-4 leukemia): 27 µM | TGI (NCI-H226 lung): 32.3 µM | TGI (NCI-H23 lung): 25.1 µM | TGI (NCI-H460 lung): 22.1 µM | TGI (NCI-H522 lung): 16.6 µM | TGI (NCI/ADR-RES ovarian): 42.1 µM | TGI (OVCAR-3 ovarian): 6.18 µM | TGI (OVCAR-4 ovarian): 21.8 µM | TGI (OVCAR-5 ovarian): 37.3 µM | TGI (OVCAR-8 ovarian): 53.2 µM | TGI (P388 leukemia): 13 µM | TGI (P388/ADR leukemia): 15.4 µM | TGI (RPMI-8226 leukemia): 28.1 µM | TGI (RXF 393 renal): 11.3 µM | TGI (SF-268 CNS): > 100 µM | TGI (SF-295 CNS): 40.7 µM | TGI (SF-539 CNS): 28.2 µM | TGI (SK-MEL-2 melanoma): 30.7 µM | TGI (SK-MEL-28 melanoma): 47.5 µM | TGI (SK-MEL-5 melanoma): 19 µM | TGI (SK-OV-3 ovarian): 80.7 µM | TGI (SN12C renal): 43.4 µM | TGI (SN12K1 renal): 23.3 µM | TGI (SNB-19 CNS): 98.8 µM | TGI (SNB-75 CNS): 97.5 µM | TGI (SNB-78 CNS): 75.2 µM | TGI (SW-620 colon): 68.5 µM | TGI (U251 CNS): 54.2 µM | TGI (UACC-257 melanoma): 24.7 µM | TGI (UACC-62 melanoma): 26.2 µM | TGI (UO-31 renal): 51.3 µM | TGI (XF 498 CNS): 35.3 µM

Clc1cccc2c1OCC1C(c3ccccc3)=NN(c3ccccc3)C21 (configuration not stated)
TGI (786-0 renal): > 100 µM | TGI (A498 renal): > 100 µM | TGI (A549 NSCLC): > 100 µM | TGI (ACHN renal): > 100 µM | TGI (CCRF-CEM leukemia): > 100 µM | TGI (COLO 205 colon): > 100 µM | TGI (DLD-1 colon): > 100 µM | TGI (DMS 114 small cell lung): > 100 µM | TGI (DMS 273 small cell lung): > 100 µM | TGI (EKVX NSCLC): > 100 µM | TGI (HCC-2998 colon): > 100 µM | TGI (HCT-116 colon): > 100 µM | TGI (HL-60(TB) leukemia): > 100 µM | TGI (HOP-18 NSCLC): > 100 µM | TGI (HOP-62 NSCLC): > 100 µM | TGI (HOP-92 NSCLC): > 100 µM | TGI (HT29 colon): > 100 µM | TGI (IGROV1 ovarian): > 100 µM | TGI (K-562 leukemia): > 100 µM | TGI (KM12 colon): > 100 µM | TGI (KM20L2 colon): > 100 µM | TGI (LOX IMVI melanoma): > 100 µM | TGI (LXFL 529 NSCLC): > 100 µM | TGI (M19-MEL melanoma): > 100 µM | TGI (MALME-3M melanoma): > 100 µM | TGI (MOLT-4 leukemia): > 100 µM | TGI (NCI-H23 lung): > 100 µM | TGI (NCI-H460 lung): > 100 µM | TGI (NCI-H522 lung): > 100 µM | TGI (OVCAR-3 ovarian): > 100 µM | TGI (OVCAR-5 ovarian): > 100 µM | TGI (OVCAR-8 ovarian): > 100 µM | TGI (RPMI-8226 leukemia): > 100 µM | TGI (RXF 393 renal): > 100 µM | TGI (RXF-631 renal): > 100 µM | TGI (SF-268 CNS): > 100 µM | TGI (SF-295 CNS): > 100 µM | TGI (SK-MEL-2 melanoma): > 100 µM | TGI (SK-MEL-28 melanoma): > 100 µM | TGI (SK-MEL-5 melanoma): 90.7 µM | TGI (SK-OV-3 ovarian): > 100 µM | TGI (SNB-19 CNS): > 100 µM | TGI (SNB-75 CNS): > 100 µM | TGI (SNB-78 CNS): > 100 µM | TGI (SW-620 colon): > 100 µM | TGI (TK-10 renal): > 100 µM | TGI (U251 CNS): > 100 µM | TGI (UACC-257 melanoma): > 100 µM | TGI (UO-31 renal): > 100 µM | TGI (XF 498 CNS): > 100 µM
